Measurements as given in paper PMC9653409, “Generative deep learning enables the discovery of a potent and selective RIPK1 inhibitor” (Nature Communications, 2022).
Read-outs that look alike come from different tables or passages of the source.

Experiments:
Assay in all cases: Kinase inhibitory activity profiling of RI-962@10 µM (406 kinases, Eurofins)
Format in all cases: biochemical
[1] = target: panel of human kinases (kinase named in endpoint) (Homo sapiens, UniProt O43293); settings: 10 µM; read-out: Activity (%), ZIPK(h)
Procedure, shortened: (§1)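 Radiometric filter-binding kinase assays: enzyme preincubated 15 min with compound in 8 mM MOPS pH 7.0, 0.2 mM EDTA, 250 μM peptide substrate, 10 mM magnesium acetate, 10 μM [γ-33P]-ATP. Reaction started with Mg/ATP, run 40 min at room temperature, stopped with phosphoric acid; 33P incorporation read by scintillation counting. Other kinases by similar protocols.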

[2] = target: panel of human kinases (kinase named in endpoint) (Homo sapiens, UniProt O75582); settings: 10 µM; read-out: Activity (%), MSK1(h)
Procedure, shortened: as §1

[3] = target: panel of human kinases (kinase named in endpoint) (Homo sapiens, UniProt O75914); settings: 10 µM; read-out: Activity (%), PAK3(h)
Procedure, shortened: as §1

[4] = target: panel of human kinases (kinase named in endpoint) (Homo sapiens, UniProt P00519, M351T); settings: 10 µM; read-out: Activity (%), Abl (M351T)(h)
Procedure, shortened: as §1

[5] = target: panel of human kinases (kinase named in endpoint) (Homo sapiens, UniProt P06241); settings: 10 µM; read-out: Activity (%), Fyn(h)
Procedure, shortened: as §1

[6] = target: panel of human kinases (kinase named in endpoint) (Homo sapiens, UniProt P08581); settings: 10 µM; read-out: Activity (%), Met(h)
Procedure, shortened: as §1

[7] = target: panel of human kinases (kinase named in endpoint) (Homo sapiens, UniProt P09619); settings: 10 µM; read-out: Activity (%), PDGFRβ(h)
Procedure, shortened: as §1

[8] = target: panel of human kinases (kinase named in endpoint) (Homo sapiens, UniProt P10721); settings: 10 µM; read-out: Activity (%), cKit(h)
Procedure, shortened: as §1

[9] = target: panel of human kinases (kinase named in endpoint) (Homo sapiens, UniProt P11362); settings: 10 µM; read-out: Activity (%), FGFR1(h)
Procedure, shortened: as §1

[10] = target: panel of human kinases (kinase named in endpoint) (Homo sapiens, UniProt P29322); settings: 10 µM; read-out: Activity (%), EphA8(h)
Procedure, shortened: as §1

[11] = target: panel of human kinases (kinase named in endpoint) (Homo sapiens, UniProt P35916); settings: 10 µM; read-out: Activity (%), Flt4(h)
Procedure, shortened: as §1

[12] = target: panel of human kinases (kinase named in endpoint) (Homo sapiens, UniProt P42345); settings: 10 µM
Procedure, shortened: as §1

[13] = target: panel of human kinases (kinase named in endpoint) (Homo sapiens, UniProt P49840); settings: 10 µM; read-out: Activity (%), GSK3α(h)
Procedure, shortened: as §1

[14] = target: panel of human kinases (kinase named in endpoint) (Homo sapiens, UniProt P50613); settings: 10 µM; read-out: Activity (%), CDK7/cyclinH/MAT1(h)
Procedure, shortened: as §1

[15] = target: panel of human kinases (kinase named in endpoint) (Homo sapiens, UniProt P54646); settings: 10 µM; read-out: Activity (%), AMPKα2(h)
Procedure, shortened: as §1

[16] = target: panel of human kinases (kinase named in endpoint) (Homo sapiens, UniProt Q07912); settings: 10 µM; read-out: Activity (%), ACK1(h)
Procedure, shortened: as §1

[17] = target: panel of human kinases (kinase named in endpoint) (Homo sapiens, UniProt Q08881); settings: 10 µM; read-out: Activity (%), Itk(h)
Procedure, shortened: as §1

[18] = target: panel of human kinases (kinase named in endpoint) (Homo sapiens, UniProt Q15418); settings: 10 µM; read-out: Activity (%), Rsk1(h)
Procedure, shortened: as §1

[19] = target: panel of human kinases (kinase named in endpoint) (Homo sapiens, UniProt Q86Z02); settings: 10 µM; read-out: Activity (%), HIPK1(h)
Procedure, shortened: as §1

[20] = target: panel of human kinases (kinase named in endpoint) (Homo sapiens, UniProt Q99986); settings: 10 µM; read-out: Activity (%), VRK1(h)
Procedure, shortened: as §1

[21] = target: panel of human kinases (kinase named in endpoint) (Homo sapiens, UniProt Q9NWZ3); settings: 10 µM; read-out: Activity (%), IRAK4(h)
Procedure, shortened: as §1

[22] = target: panel of human kinases (kinase named in endpoint) (Homo sapiens, UniProt Q9P289); settings: 10 µM; read-out: Activity (%), MST4(h)
Procedure, shortened: as §1

[23] = target: panel of human kinases (kinase named in endpoint) (Homo sapiens, UniProt Q9UIK4); settings: 10 µM; read-out: Activity (%), DAPK2(h)
Procedure, shortened: as §1

[24] = target: panel of human kinases (kinase named in endpoint) (Homo sapiens, UniProt Q9UKI8); settings: 10 µM; read-out: Activity (%), TLK1(h)
Procedure, shortened: as §1

[25] = target: panel of human kinases (kinase named in endpoint) (Homo sapiens, UniProt Q9UPE1); settings: 10 µM; read-out: Activity (%), MSSK1(h)
Procedure, shortened: as §1

[26] = target: panel of human kinases (kinase named in endpoint) (Homo sapiens, UniProt Q9UQM7); settings: 10 µM; read-out: Activity (%), CaMKIIα(h)
Procedure, shortened: as §1

panel of human kinases (kinase named in endpoint) (Homo sapiens, UniProt Q9UIK4), sequence (Q9UIK4 whole entry): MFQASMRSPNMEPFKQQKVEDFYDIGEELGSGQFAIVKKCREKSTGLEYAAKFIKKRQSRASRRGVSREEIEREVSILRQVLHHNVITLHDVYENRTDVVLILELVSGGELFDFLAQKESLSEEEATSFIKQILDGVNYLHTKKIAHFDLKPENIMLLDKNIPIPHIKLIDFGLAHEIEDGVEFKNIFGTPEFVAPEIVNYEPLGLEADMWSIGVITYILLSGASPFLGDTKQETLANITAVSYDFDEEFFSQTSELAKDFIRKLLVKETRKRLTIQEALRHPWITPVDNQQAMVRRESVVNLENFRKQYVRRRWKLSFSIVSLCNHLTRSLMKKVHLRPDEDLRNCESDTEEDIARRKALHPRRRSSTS
panel of human kinases (kinase named in endpoint) (Homo sapiens, UniProt P09619), sequence (P09619 33-1106): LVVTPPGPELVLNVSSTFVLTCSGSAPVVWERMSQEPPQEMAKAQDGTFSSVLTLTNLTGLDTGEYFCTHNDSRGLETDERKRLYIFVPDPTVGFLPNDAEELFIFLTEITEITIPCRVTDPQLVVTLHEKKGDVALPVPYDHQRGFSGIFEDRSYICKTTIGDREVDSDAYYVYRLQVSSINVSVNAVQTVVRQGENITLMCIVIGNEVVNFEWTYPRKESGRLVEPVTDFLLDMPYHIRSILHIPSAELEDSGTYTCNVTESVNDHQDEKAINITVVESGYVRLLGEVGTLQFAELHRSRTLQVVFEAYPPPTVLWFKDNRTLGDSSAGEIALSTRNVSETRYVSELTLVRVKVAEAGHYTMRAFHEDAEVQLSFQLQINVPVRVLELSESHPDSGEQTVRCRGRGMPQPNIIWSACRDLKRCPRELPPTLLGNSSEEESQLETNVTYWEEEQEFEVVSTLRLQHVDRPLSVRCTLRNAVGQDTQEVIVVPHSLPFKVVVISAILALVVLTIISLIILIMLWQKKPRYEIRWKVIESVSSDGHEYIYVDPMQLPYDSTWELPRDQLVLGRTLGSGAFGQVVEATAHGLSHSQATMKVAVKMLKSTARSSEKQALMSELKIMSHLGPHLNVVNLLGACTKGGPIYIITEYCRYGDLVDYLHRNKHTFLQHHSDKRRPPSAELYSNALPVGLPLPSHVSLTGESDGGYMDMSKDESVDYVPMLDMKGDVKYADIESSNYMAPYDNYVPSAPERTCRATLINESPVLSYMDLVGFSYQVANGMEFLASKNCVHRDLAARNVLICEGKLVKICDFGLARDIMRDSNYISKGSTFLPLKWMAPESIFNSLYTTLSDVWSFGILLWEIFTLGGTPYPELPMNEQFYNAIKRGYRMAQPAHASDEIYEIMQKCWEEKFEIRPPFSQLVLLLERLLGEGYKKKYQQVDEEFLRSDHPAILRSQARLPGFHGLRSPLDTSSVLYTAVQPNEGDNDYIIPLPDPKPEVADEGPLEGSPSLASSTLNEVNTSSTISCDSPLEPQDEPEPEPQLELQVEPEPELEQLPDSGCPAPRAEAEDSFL
panel of human kinases (kinase named in endpoint) (Homo sapiens, UniProt P10721), sequence (P10721 26-976): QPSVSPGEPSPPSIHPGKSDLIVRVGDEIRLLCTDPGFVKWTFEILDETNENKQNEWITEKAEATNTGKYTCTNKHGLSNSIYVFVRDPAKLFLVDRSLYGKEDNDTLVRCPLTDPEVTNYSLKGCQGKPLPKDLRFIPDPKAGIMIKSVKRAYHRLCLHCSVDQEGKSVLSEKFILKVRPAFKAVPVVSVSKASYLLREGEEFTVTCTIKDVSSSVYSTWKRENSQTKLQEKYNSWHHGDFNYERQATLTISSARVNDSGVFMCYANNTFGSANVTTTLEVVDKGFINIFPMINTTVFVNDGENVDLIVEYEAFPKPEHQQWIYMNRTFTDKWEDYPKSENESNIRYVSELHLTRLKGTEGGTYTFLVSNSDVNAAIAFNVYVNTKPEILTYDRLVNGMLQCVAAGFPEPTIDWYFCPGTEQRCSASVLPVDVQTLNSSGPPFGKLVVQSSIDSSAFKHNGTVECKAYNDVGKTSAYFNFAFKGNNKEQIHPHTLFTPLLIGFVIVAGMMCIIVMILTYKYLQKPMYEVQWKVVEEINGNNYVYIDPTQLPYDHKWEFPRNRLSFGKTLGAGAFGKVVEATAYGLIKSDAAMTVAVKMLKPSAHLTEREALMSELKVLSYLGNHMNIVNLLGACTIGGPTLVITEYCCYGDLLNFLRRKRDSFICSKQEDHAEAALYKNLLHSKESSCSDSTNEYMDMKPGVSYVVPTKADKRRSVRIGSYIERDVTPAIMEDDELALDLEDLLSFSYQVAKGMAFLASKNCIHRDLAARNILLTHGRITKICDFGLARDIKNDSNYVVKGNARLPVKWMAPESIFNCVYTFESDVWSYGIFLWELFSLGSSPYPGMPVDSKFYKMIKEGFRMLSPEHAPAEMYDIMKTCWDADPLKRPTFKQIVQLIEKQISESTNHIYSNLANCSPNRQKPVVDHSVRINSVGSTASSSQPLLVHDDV
panel of human kinases (kinase named in endpoint) (Homo sapiens, UniProt Q08881), sequence (Q08881 whole entry): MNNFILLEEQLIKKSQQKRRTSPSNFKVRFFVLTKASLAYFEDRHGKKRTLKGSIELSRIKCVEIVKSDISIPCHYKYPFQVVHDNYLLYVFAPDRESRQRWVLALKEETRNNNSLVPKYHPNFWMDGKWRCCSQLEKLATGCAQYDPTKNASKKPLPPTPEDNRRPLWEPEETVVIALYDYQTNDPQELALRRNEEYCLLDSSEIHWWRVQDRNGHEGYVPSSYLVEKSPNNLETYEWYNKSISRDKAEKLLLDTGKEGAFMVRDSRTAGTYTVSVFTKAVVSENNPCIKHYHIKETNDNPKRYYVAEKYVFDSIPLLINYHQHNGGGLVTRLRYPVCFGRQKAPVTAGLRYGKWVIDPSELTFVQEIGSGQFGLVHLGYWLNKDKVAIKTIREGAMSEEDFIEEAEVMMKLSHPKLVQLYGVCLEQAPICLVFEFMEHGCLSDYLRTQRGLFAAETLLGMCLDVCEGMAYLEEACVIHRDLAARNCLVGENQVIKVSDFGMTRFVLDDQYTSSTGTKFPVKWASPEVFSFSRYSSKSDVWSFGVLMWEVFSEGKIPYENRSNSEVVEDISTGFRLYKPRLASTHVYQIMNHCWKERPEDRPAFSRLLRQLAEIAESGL
panel of human kinases (kinase named in endpoint) (Homo sapiens, UniProt Q9P289), sequence (Q9P289 whole entry): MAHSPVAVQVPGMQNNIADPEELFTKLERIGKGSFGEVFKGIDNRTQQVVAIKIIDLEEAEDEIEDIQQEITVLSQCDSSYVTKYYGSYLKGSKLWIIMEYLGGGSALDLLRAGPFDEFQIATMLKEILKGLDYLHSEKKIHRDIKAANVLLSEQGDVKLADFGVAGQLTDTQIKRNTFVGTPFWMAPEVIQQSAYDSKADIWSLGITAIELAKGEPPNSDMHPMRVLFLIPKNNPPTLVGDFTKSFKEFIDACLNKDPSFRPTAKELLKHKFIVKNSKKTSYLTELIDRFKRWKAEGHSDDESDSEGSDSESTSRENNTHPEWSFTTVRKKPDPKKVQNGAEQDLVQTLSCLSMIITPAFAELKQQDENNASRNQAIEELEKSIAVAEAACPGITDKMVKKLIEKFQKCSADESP
panel of human kinases (kinase named in endpoint) (Homo sapiens, UniProt P35916), sequence (P35916 25-1363): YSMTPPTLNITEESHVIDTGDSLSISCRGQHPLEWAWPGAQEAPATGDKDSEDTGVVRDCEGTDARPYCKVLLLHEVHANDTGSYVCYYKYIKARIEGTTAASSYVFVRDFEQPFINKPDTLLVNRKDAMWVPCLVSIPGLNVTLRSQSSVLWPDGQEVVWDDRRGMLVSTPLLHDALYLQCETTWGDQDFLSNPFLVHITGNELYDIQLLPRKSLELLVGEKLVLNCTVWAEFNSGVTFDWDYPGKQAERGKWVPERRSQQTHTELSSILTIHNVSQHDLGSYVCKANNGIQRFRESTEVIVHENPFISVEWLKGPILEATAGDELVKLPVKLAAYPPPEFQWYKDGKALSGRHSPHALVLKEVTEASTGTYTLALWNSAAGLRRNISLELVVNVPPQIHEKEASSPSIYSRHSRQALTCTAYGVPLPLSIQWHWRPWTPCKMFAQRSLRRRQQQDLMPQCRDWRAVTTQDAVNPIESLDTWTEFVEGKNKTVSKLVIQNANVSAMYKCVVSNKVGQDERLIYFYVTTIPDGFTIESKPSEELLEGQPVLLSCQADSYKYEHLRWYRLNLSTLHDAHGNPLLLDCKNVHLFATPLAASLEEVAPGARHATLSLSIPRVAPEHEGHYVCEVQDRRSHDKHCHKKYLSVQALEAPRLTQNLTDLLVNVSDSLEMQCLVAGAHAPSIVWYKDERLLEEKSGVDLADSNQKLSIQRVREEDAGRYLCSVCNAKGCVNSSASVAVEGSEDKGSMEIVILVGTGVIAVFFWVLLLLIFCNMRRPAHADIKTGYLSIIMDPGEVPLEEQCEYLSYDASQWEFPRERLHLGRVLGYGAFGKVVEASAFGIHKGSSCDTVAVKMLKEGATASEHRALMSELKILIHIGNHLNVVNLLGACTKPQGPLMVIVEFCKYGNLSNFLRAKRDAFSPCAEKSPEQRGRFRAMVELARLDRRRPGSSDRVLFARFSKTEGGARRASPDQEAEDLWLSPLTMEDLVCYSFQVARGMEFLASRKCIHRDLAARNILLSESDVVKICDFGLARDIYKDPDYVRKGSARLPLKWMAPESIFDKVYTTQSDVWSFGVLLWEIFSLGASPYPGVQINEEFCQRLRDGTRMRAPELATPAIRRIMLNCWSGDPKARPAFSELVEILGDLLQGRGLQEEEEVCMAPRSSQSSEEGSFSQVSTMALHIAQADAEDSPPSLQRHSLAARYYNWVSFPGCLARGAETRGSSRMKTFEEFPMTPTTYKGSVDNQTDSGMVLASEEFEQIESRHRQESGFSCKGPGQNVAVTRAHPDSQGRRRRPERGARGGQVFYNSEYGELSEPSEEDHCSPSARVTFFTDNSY

## CC(C)C(=O)Nc1nc2cc(-c3ccc4c(c3)c(C(=O)NC(C)c3ccccc3)cn4C)ccn2n1 (stereo not drawn) [RI-962]
[1]
  activity at 10 µM: 102%
[2]
  activity at 10 µM: 112%
[3]
  activity at 10 µM: 77%
[4]
  activity at 10 µM: 121%
[5]
  activity at 10 µM: 107%
[6]
  activity at 10 µM: 102%
[7]
  activity at 10 µM: 107%
[8]
  activity at 10 µM: 105%
[9]
  activity at 10 µM: 81%
[10]
  activity at 10 µM: 88%
[11]
  activity at 10 µM: 86%
[12]; read-out: Activity (%), mTOR(h)
  activity at 10 µM: 87%
[12]; read-out: Activity (%), mTOR/FKBP12(h)
  activity at 10 µM: 98%
[13]
  activity at 10 µM: 112%
[14]
  activity at 10 µM: 93%
[15]
  activity at 10 µM: 89%
[16]
  activity at 10 µM: 100%
[17]
  activity at 10 µM: 71%
[18]
  activity at 10 µM: 120%
[19]
  activity at 10 µM: 103%
[20]
  activity at 10 µM: 86%
[21]
  activity at 10 µM: 79%
[22]
  activity at 10 µM: 119%
[23]
  activity at 10 µM: 104%
[24]
  activity at 10 µM: 69%
[25]
  activity at 10 µM: 85%
[26]
  activity at 10 µM: 93%
